The results in this text go back to patent publication US4161598A, “1-Oxygenated-2,6-methano-3-benzazocines” (Sterling Drug Inc., priority 1977, dated 1979).

In one test the test system is phenazocine. Nature of the test: Tail-flick Antagonist Test against phenazocine. Particulars: for ED50: Rattus norvegicus, sc, 10 min, read-out: Subcutaneous AD50 (95% Confidence Limits) Against Phenazocine.
For a further test, the system named is acetylcholine. Nature of the test: Anti-acetylcholine Writhing Test. Type of test: in vivo, mice. Particulars: subcutaneous; for ED50: Mus musculus, sc, 20 min, read-out: Subcutaneous ED50 (95% Confidence Limits). On the procedure: This response has also been called writhing. Animals are pretreated with test compounds (20 minutes for both subcutaneous and oral routes) and observed for two minutes immediately following the administration of acetylcholine. Mice not responding during the two-minute observation period are scored protected while those responding one or more times are scored not protected. Test compounds are screened at doses of 75 and 25 mg./kg. subcutaneously or 150 and 50 mg./kg. orally. […] ED50 values for active compounds are estimated by probit analysis of quantal scores for 4 or more dosage levels using 15 animals per dose. Vehicle-pretreated control animals are tested concurrently with each run of 15 experimental animals.
(In general: In writhing tests, fewer writhes than in controls are read as antinociception.)

Structures can show the parent of a compound that is named as a salt. Where two headings read alike, the source gives them in different places.

As to `CCCC(=O)Oc1ccc2c(c1)[C@]1(C)CCN(CC3CC3)[C@H](C2=O)[C@@H]1C` (relative stereo) [Example 4, 1,2,3,4,5,6-hexahydro-1-oxo-3-cyclopropylmethyl-8-butyryloxy-6(eq),11(ax)-dimethyl-2,6-methano-3-benzazocine hydrochloride], the ED50 in the test with phenazocine stood at 6.2 mg/kg; in the test on acetylcholine (form tested not given), 0.14 mg/kg.
For `CCCN1CC[C@@]2(C)c3cc(O)ccc3C(=O)[C@@H]1[C@@H]2C` (relative stereo) [Example 15, 1,2,3,4,5,6-hexahydro-1-oxo-3-propyl-8-hydroxy-6(eq),11(ax)-dimethyl-2,6-methano-3-benzazocine], in that order: 2.8 mg/kg and 3.2 mg/kg.
Turning to `COc1ccc(C(=O)Oc2ccc3c(c2)[C@]2(C)CCN(CC4CC4)[C@H](C3=O)[C@@H]2C)cc1` (relative stereo) [Example 10, 1,2,3,4,5,6-hexahydro-1-oxo-3-cyclopropylmethyl-8-(p-anisoyloxy)-6(eq),11(ax)-dimethyl-2,4-methano-3-benzazocine], the ED50 with acetylcholine (form tested not given) came to 0.1 mg/kg.
Turning to `CC(=O)Oc1ccc2c(c1)[C@]1(C)CCN(CC3CC3)[C@H](C2=O)[C@@H]1C` (relative stereo) [Example 2, 1,2,3,4,5,6-hexahydro-1-oxo-3-cyclopropylmethyl-8-acetoxy-6(eq),11(ax)-dimethyl-2,6-methano-3-benzazocine hydrochloride], the ED50 in the test with phenazocine stood at 3 mg/kg; in the test with acetylcholine (hydrochloride salt), 0.14 mg/kg.
For `C[C@@H]1[C@@H]2C(=O)c3ccc(O)cc3[C@@]1(C)CCN2CC1CC1` [Example 26D, dextro-rotatory 2S,6R,11R-1,2,3,4,5,6-hexahydro-1-oxo-3-cyclopropylmethyl-8-hydroxy-6(eq),11(ax)-dimethyl-2,6-methano-3-benzazocine], the “narcotic antagonist effect against phenazocine” value with phenazocine (10 mg./kg. subcutaneously, methanesulfonic salt, in words) was “inactive”. The “% effect against phenazocine” value with phenazocine (80 mg./kg. subcutaneously, methanesulfonic salt) is 32%. In addition, the “% effect” value is on record as 33% in the test on acetylcholine (25 mg./kg., methanesulfonate salt) and 93% in the test with acetylcholine (75 mg./kg., methanesulfonate salt).
With `C=CCN1CC[C@@]2(CC)c3cc(O)ccc3C(=O)[C@@H]1[C@@H]2C` (relative stereo) [Example 37, 1,2,3,4,5,6-hexahydro-3-allyl-1-oxo-8-hydroxy-6(eq)-ethyl-11(ax)-methyl-2,6-methano-3-benzazocine], the ED50 in the test with phenazocine stood at 6.3 mg/kg; in the test on acetylcholine (form tested not given), 2.3 mg/kg.
The matching figures for `CC[C@@]12CCN(CC3CC3)[C@@H](C1)C(=O)c1ccc(O)cc12` (relative stereo) [Example 28C, 1,2,3,4,5,6-hexahydro-1-oxo-3-cyclopropylmethyl-8-hydroxy-6(eq)-ethyl-2,6-methano-3-benzazocine hydrochloride]: 14 mg/kg and 0.38 mg/kg.
For `CCCN1CC[C@@]2(CC)c3cc(O)ccc3C(=O)[C@@H]1[C@@H]2C` (relative stereo) [Example 36, 1,2,3,4,5,6-hexahydro-3-propyl-1-oxo-8-hydroxy-6(eq)-ethyl-11(ax)-methyl-2,6-methano-3-benzazocine methanesulfonate], in that order: 6.2 mg/kg and 1 mg/kg.
Take `Cc1ccc(C(=O)Oc2ccc3c(c2)[C@]2(C)CCN(CC4CC4)[C@H](C3=O)[C@@H]2C)cc1` (relative stereo) [Example 12, 1,2,3,4,5,6-hexahydro-1-oxo-3-cyclopropylmethyl-8-(p-toluyloxy)-6(eq),11(ax)-dimethyl-2,6-methano-3-benzazocine]: in the test with acetylcholine (form tested not given), the ED50 is 0.06 mg/kg.
Take `CCC[C@]12CCN(CC3CC3)[C@H](C(=O)c3ccc(O)cc31)[C@@H]2C` (relative stereo) [Example 32C, 1,2,3,4,5,6-hexahydro-1-oxo-3-cyclopropylmethyl-8-hydroxy-6(eq)-propyl-11(ax)-methyl-2,6-methano-3-benzazocine]: the ED50 with acetylcholine (form tested not given) was determined as 1.5 mg/kg.
On to `C=CCN1CC[C@@]2(C)c3cc(O)ccc3C(=O)[C@@H]1[C@@H]2C` (relative stereo) [Example 16, 1,2,3,4,5,6-hexahydro-1-oxo-3-allyl-8-hydroxy-6(eq),11(ax)-dimethyl-2,6-methano-3-benzazocine], for which the ED50 with phenazocine is 2.2 mg/kg; in the test on acetylcholine (form tested not given), 1.5 mg/kg.
For the molecule `CC[C@H]1[C@H]2C(=O)c3ccc(O)cc3[C@]1(C)CCN2CC1CC1` (relative stereo) [Example 33E, 1,2,3,4,5,6-hexahydro-1-oxo-3-cyclopropylmethyl-8-hydroxy-6(eq)-methyl-11-(ax)-ethyl-2,6-methano-3-benzazocine], the ED50 in the test on phenazocine came out at 0.17 mg/kg; in the test with acetylcholine (form tested not given), 0.47 mg/kg.
In the case of `C[C@H]1[C@H]2C(=O)c3ccc(OC(=O)CC(C)(C)C)cc3[C@]1(C)CCN2CC1CC1` (relative stereo) [Example 8, 1,2,3,4,5,6-hexahydro-1-oxo-3-cyclopropylmethyl-8-(3,3-dimethylbutanoyloxy)-6(eq),11(ax)-dimethyl-2,6-methano-3-benzazocine], in the test with acetylcholine (form tested not given), the ED50 came out at 0.08 mg/kg.
Turning to `C[C@@H]1[C@H]2C(=O)c3ccc(O)cc3[C@]1(C)CCN2CC1CC1` (relative stereo) [Example 27, 1,2,3,4,5,6-hexahydro-1-oxo-3-cyclopropylmethyl-8-hydroxy-6(eq),11(eq)-dimethyl-2,6-methano-3-benzazocine hydrochloride hemiethanolate], the ED50 with phenazocine turned out to be 2.8 mg/kg; in the test on acetylcholine (form tested not given), 30 mg/kg.
For `C[C@H]1[C@H]2C(=O)c3ccc(OC(=O)C(C)(C)C)cc3[C@]1(C)CCN2CC1CC1` (relative stereo) [Example 5, 1,2,3,4,5,6-hexahydro-1-oxo-3-cyclopropylmethyl-8-pivalyloxy-6(eq),11(ax)-dimethyl-2,6-methano-3-benzazocine], in that order: 38 mg/kg and 0.06 mg/kg.
For `CC(C)CC(=O)Oc1ccc2c(c1)[C@]1(C)CCN(CC3CC3)[C@H](C2=O)[C@@H]1C` (relative stereo) [Example 7, 1,2,3,4,5,6-hexahydro-1-oxo-3-cyclopropylmethyl-8-isovaleryloxy-6(eq),11(ax)-dimethyl-2,6-methano-3-benzazocine], in that order: 5.2 mg/kg and 0.06 mg/kg.
Regarding `CC[C@H]1[C@H]2C(=O)c3ccc(O)cc3[C@]1(CC)CCN2CC1CC1` (relative stereo) [Example 31C, 1,2,3,4,5,6-hexahydro-1-oxo-3-cyclopropylmethyl-8-hydroxy-6(eq),11(ax)-diethyl-2,6-methano-3-benzazocine], the values for the ED50 with phenazocine and in the test with acetylcholine (methanesulfonate salt) were 0.48 mg/kg and 0.15 mg/kg, respectively.
Consider `CCC(=O)Oc1ccc2c(c1)[C@]1(C)CCN(CC3CC3)[C@H](C2=O)[C@@H]1C` (relative stereo) [Example 3, 1,2,3,4,5,6-hexahydro-1-oxo-3-cyclopropylmethyl-8-propionyloxy-6(eq),11(ax)-dimethyl-2,6-methano-3-benzazocine hydrochloride], for which, in the test with phenazocine, the ED50 turned out to be 6 mg/kg. Also, the “% effect” value with acetylcholine (0.1 mg./kg.) stood at 20%; in the test on acetylcholine (1 mg./kg.) it was 27%; in the test with acetylcholine (10 mg./kg.), 7%; with acetylcholine (100 mg./kg.), 47%.
Consider `C[C@H]1[C@H]2C(=O)c3ccc(O)cc3[C@]1(C)CCN2CC1CC1` [Example 26C, 2S,6R,11R-1,2,3,4,5,6-hexahydro-1-oxo-3-cyclopropylmethyl-8-hydroxy-6(eq),11(ax)-dimethyl-2,6-methano-3-benzazocine], for which the ED50 in the test on phenazocine was found to be 2.4 mg/kg; with acetylcholine (methanesulfonate salt) it was 0.11 mg/kg.
Consider `C[C@H]1[C@H]2C(=O)c3ccc(OC(=O)c4ccc(C(F)(F)F)cc4)cc3[C@]1(C)CCN2CC1CC1` (relative stereo) [Example 13, 1,2,3,4,5,6-hexahydro-1-oxo-3-cyclopropylmethyl-8-(p-trifluoromethylbenzoyloxy)-6(eq),11(ax)-dimethyl-2,6-methano-3-benzazocine], for which the ED50 in the test with acetylcholine (form tested not given) came to 0.05 mg/kg.
Take `CC(C)C(=O)Oc1ccc2c(c1)[C@]1(C)CCN(CC3CC3)[C@H](C2=O)[C@@H]1C` (relative stereo) [Example 6, 1,2,3,4,5,6-hexahydro-1-oxo-3-cyclopropylmethyl-8-isobutyryloxy-6(eq),11(ax)-dimethyl-2,6-methano-3-benzazocine]: the ED50 with phenazocine is 7 mg/kg; in the test on acetylcholine (form tested not given), 0.09 mg/kg.
On to `COc1cccc(C(=O)Oc2ccc3c(c2)[C@]2(C)CCN(CC4CC4)[C@H](C3=O)[C@@H]2C)c1` (relative stereo) [Example 11, 1,2,3,4,5,6-hexahydro-1-oxo-3-cyclopropylmethyl-8-(m-anisoyloxy)-6(eq),11(ax)-dimethyl-2,6-methano-3-benzazocine hydrochloride], for which the ED50 in the test on acetylcholine (form tested not given) came out at 0.1 mg/kg.
Turning to `C[C@H]1[C@H]2C(=O)c3ccc(OC(=O)c4ccccc4)cc3[C@]1(C)CCN2CC1CC1` (relative stereo) [Example 9, 1,2,3,4,5,6-hexahydro-1-oxo-3-cyclopropylmethyl-8-benzoyloxy-6(eq),11(ax)-dimethyl-2,6-methano-3-benzazocine], the values for the ED50 with phenazocine and in the test with acetylcholine (form tested not given) were 14 mg/kg and 0.07 mg/kg, respectively.
For `CC[C@]12CCN(CC3CC3)[C@H](C(=O)c3ccc(O)cc31)[C@H]2C` (relative stereo) [Example 30C, 1,2,3,4,5,6-hexahydro-1-oxo-3-cyclopropylmethyl-8-hydroxy-6(eq)-ethyl-11(eq)-methyl-2,6-methano-3-benzazocine hydrochloride], in that order: 4.2 mg/kg and 2.1 mg/kg.
